From patent US11504368B2, “2,6-diamino-3,4-dihydropyrimidin-4-one derivatives and use thereof in therapy” (THOMAS HELLEDAYS STIFTELSE FÖR MEDICINSK FORSKNING, priority 2018, dated 2022)

Legend:
MTHFD2 = MTHFD2 (Homo sapiens (Human), UniProt P13995); test: Inhibition of MTHFD2 (NAD(P)H-Glo luminescence); assay type: biochemical; settings: 3.4 nmol/L MTHFD2, 5 μmol/L folitixorin, 250 μmol/L NAD+; mean of at least 3 independent measurements
Description: DMSO was used as negative control. The serial dilution in DMSO, from compound DMSO stock solution, was created by dispensing from a 384-well low dead volume microplate (LP-0200, Labcyte) and a 384-well polypropylene microplate 2.0 (PP-0200, Labcyte). A total of 2.5 μL MTHFD2 was preincubated with compound or DMSO for 10 min. The enzymatic reaction was initiated by adding 2.5 μL folitixorin (F680350, Toronto Research Chemicals). For background control, 5 μL buffer was added to the well. […] The final concentrations of all reagents in a total assay volume of 5 μL per well were 50 mmol/L Tris-HCl at pH 8.0, 100 mmol/L NaCl, 5 mmol/L MgCl2, 25 mmol/L Na3PO4 at pH 8.0, 0.005% (v/v) Tween-20, and 2 mmol/L 2-mercaptoethanol. After 15 min reaction time, 5 μL NAD(P)H-Glo detection reagent (G9061 or G9062, Promega) was dispensed in all wells and the plate was incubated for 60 min. Luminescence was measured on a plate reader (Envision, PerkinElmer or Sense, Hidex). The light signal produced is proportional to the amount of NAD(P)H in the sample. IC50 values were determined by fitting a four parameter sigmoidal curve model using XLfit (IDBS). Reported IC50 values are the mean of at least 3 independent measurements.

HL-60 cells = test: Cancer cell viability assay (HL-60, resazurin); assay type: cell-based; settings: Homo sapiens, 96 h, mean of at least 3 independent measurements, read-out: HL60 cell proliferation inhibition EC50
Description: HL-60 cells (human promyelocytic leukemia cells) were seeded in a 384-well plate at a density of 2,000 cells per well in 50 μL induction medium and treated with vehicle (DMSO) or an 11-point concentration range with 3-fold dilution in concentration of compound. Each assay point was run in duplicate. Wells without cells but with DMSO were used as negative controls. The cells were left to proliferate over a period of 96 h, in an incubator at 37° C. and 5% CO2, followed by an addition of 10 μL […] resazurin sodium salt (199303, Sigma-Aldrich) dissolved in DPBS (14190, Gibco). After 4 h of incubation at 37° C. and 5% CO2, the fluorescent signal was measured using an excitation wavelength of 544 nm and an emission wavelength of 595 nm in a Hidex Sense plate reader. Cell plates were incubated in boxes with damp paper tissues to avoid evaporation. All additions, except compound and DMSO, were done using the Multidrop Combi (Thermo Fisher Scientific). DMSO and compounds were pre-dispensed with an Echo 550 Liquid handler (Labcyte) in black, clear bottom, TC-treated and sterile 384-well plates (3764, Corning). Growth medium consisted of RPMI 1640 GlutaMAX (61870, Gibco), 10% (v/v) FBS (10500, Gibco), and 1% (v/v) P/S (15070, Gibco). Induction medium consisted of RPMI 1640 GlutaMAX (61870, Gibco), 5% (v/v) FBS (10500, Gibco), and 1% (v/v) P/S (15070, Gibco). EC50 values were determined by fitting a four parameter sigmoidal curve model using XLfit (IDBS). Reported EC50 values are the mean of at least 3 independent measurements.

MTHFD2, sequence (P13995 36-350): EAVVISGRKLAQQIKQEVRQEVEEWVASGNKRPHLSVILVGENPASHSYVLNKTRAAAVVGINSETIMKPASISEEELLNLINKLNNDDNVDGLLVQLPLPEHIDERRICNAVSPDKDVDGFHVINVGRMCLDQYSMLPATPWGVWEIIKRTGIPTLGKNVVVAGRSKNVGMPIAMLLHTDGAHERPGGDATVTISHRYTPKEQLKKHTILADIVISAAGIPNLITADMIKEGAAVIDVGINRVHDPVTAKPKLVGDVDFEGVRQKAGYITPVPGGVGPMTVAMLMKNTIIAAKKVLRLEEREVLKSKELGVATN

What does the source list for `Nc1nc(N)c(NC(=O)Nc2ccc(C(=O)N[C@@H](CC3CCCC3)C(=O)O)nc2)c(=O)[nH]1` [Example 11, (2S)-3-cyclopentyl-2-[(5-{[(2,4-diamino-6-oxo-1,6-dihydropyrimidin-5-yl)carbamoyl]amino}pyridin-2-yl)formamido]propanoic acid]?
IC50 (MTHFD2): 46 nM; EC50 (HL-60 cells): 37 nM

`Nc1nc(N)c(NC(=O)Nc2ccc(C(=O)N[C@H](C(=O)O)C3CCCCC3)nc2)c(=O)[nH]1` [Example 12, (2S)-2-cyclohexyl-2-[(5-{[(2,4-diamino-6-oxo-1,6-dihydropyrimidin-5-yl)carbamoyl]amino}pyridin-2-yl)formamido]acetic acid] was tested. Which IC50 (MTHFD2) did it give?
The IC50 was 17 nM.

What about the EC50 (HL-60 cells) of the same compound?
The EC50 was 7 nM.

With `CC(C)[C@H](NC(=O)c1ccc(NC(=O)Cc2c(N)nc(N)[nH]c2=O)cn1)C(=O)O` [Example 13, (2S)-2-({5-[2-(2,4-diamino-6-oxo-1,6-dihydropyrimidin-5-yl)acetamido]pyridin-2-yl}formamido)-3-methylbutanoic acid] as the compound, how does the IC50 (MTHFD2) read?
The IC50 was 103 nM.

What about the EC50 (HL-60 cells) of the same compound?
Its EC50 is 215 nM.

How did the IC50 (MTHFD2) turn out when `Nc1nc(N)c(NC(=O)Nc2ccc(C(=O)N[C@H](C(=O)O)c3ccccc3)nc2)c(=O)[nH]1` [Example 15, (2S)-2-[(5-{[(2,4-diamino-6-oxo-1,6-dihydropyrimidin-5-yl)carbamoyl]amino}pyridin-2-yl)formamido]-2-phenylacetic acid] was run?
The IC50 was 23 nM.

What about the EC50 (HL-60 cells) of the same compound?
Its EC50 is 470 nM.

`Nc1nc(N)c(NC(=O)Nc2ccc(C(=O)N[C@@H](CCC(=O)NS(=O)(=O)c3ccccc3)C(=O)O)nc2)c(=O)[nH]1` [Example 16, (2S)-4-[(benzenesulfonyl)carbamoyl]-2-[(5-{[(2,4-diamino-6-oxo-1,6-dihydropyrimidin-5-yl)carbamoyl]amino}pyridin-2-yl)formamido]butanoic acid] was tested. Which IC50 (MTHFD2) did it give?
The IC50 was 11 nM.

And the EC50 (HL-60 cells)?
The EC50 was 197 nM.

What does the source list for `Nc1nc(N)c(NC(=O)Nc2ccc(C(=O)N[C@@H](CCCC(=O)O)C(=O)O)nc2)c(=O)[nH]1` [Example 17, (2S)-2-[(5-{[(2,4-diamino-6-oxo-1,6-dihydropyrimidin-5-yl)carbamoyl]amino}pyridin-2-yl)formamido]hexanedioic acid]?
IC50 (MTHFD2): 32 nM; EC50 (HL-60 cells): 200 nM

For `Nc1nc(N)c(NC(=O)Nc2ccc(C(=O)N[C@@H](CCC(=O)O)C(=O)O)nc2OC2CC2)c(=O)[nH]1` [Example 18, (2S)-2-[(6-cyclopropoxy-5-{[(2,4-diamino-6-oxo-1,6-dihydropyrimidin-5-yl)carbamoyl]amino}pyridin-2-yl)formamido]pentanedioic acid], which IC50 (MTHFD2) is on record?
Its IC50 is 3 nM.

And the EC50 (HL-60 cells)?
Its EC50 is 45 nM.

`Nc1nc(N)c(CC(=O)Nc2cnc(C(=O)N[C@@H](CCC(=O)O)C(=O)O)c(Cl)c2)c(=O)[nH]1` [Example 19, (2S)-2-((3-chloro-5-[2-(2,4-diamino-6-oxo-1,6-dihydropyrimidin-5-yl)acetamido]pyridin-2-yl)formamido)pentanedioic acid] was tested. Which IC50 (MTHFD2) did it give?
Its IC50 is 72 nM.

What about the EC50 (HL-60 cells) of the same compound?
Its EC50 is 8 nM.

`Cc1cc(NC(=O)Cc2c(N)nc(N)[nH]c2=O)cnc1C(=O)N[C@@H](CCC(=O)O)C(=O)O` [Example 20, (2S)-2-({5-[2-(2,4-diamino-6-oxo-1,6-dihydropyrimidin-5-yl)acetamido]-3-methylpyridin-2-yl}formamido)pentanedioic acid] was tested. Which IC50 (MTHFD2) did it give?
The IC50 was 913 nM.

And the EC50 (HL-60 cells)?
Its EC50 is 34 nM.

With `C=Cc1nc(C(=O)N[C@@H](CCC(=O)O)C(=O)O)ccc1NC(=O)Cc1c(N)nc(N)[nH]c1=O` [Example 21, (2S)-2-((5-[2-(2,4-diamino-6-oxo-1,6-dihydropyrimidin-5-yl)acetamido]-6-ethenylpyridin-2-yl)formamido)pentanedioic acid] as the compound, how does the IC50 (MTHFD2) read?
Its IC50 is 298 nM.

And the EC50 (HL-60 cells)?
Its EC50 is 8620 nM.

With `Nc1nc(N)c(NC(=O)Nc2ccc(C(=O)N[C@@H](CC(=O)O)C(=O)O)nc2)c(=O)[nH]1` [Example 22, (2S)-2-[(5-{[(2,4-diamino-6-oxo-1,6-dihydropyrimidin-5-yl)carbamoyl]amino}pyridin-2-yl)formamido]butanedioic acid] as the compound, how does the IC50 (MTHFD2) read?
Its IC50 is 195 nM.

What about the EC50 (HL-60 cells) of the same compound?
The EC50 was 12800 nM.
